Measurements as given in US20230043948A1, “METHOD AND KIT FOR CELL GROWTH” (PRECISION CANCER TECHNOLOGIES INC ., priority 2019, published 2023).
“Also recorded” adds a separate entry of the source. Where two headings read alike, the source gives them in different places.

Experiments:
[1] = tested on: lung cancer cells overexpressing the c-Met receptor (PDX, LXFA-1647); assay: ex vivo drug testing of lung cancer cells overexpressing c-Met in a 3D hydrogel array / Matrigel; format: cell-based, human
From the text: A PEG was used as a hydrogel precursor molecule for making a non self-degradable hydrogel. As a crosslinking agent, peptides containing at least two, preferably two cysteine moieties were used which varied in their amino acid sequence, in particular with respect to the presence or absence of a RGD adhesion motif and with respect to the presence or absence of a MMP degradation sequence. A further variation that was made to some hydrogels was the attachment of a bioactive ligand comprising a RGD adhesion motif or/and a ligand selected from the group consisting of natural laminins, recombinant laminin isoforms, and biofunctional fragments thereof. Examples of suitable recombinant laminin isoforms are laminin-111, laminin-211, laminin-332, laminin-411, laminin-511, or laminin-521. An array of hydrogels varying in the above preselected features was established, by the method described above.
The mechanical properties of the hydrogels were also varied (soft (50-1000 Pa), medium (1000-2000 Pa) or hard (2000-3000 Pa) gels).
For comparison, tests were also conducted in the undefined natural-derived matrix Matrigel®.
The respective drug was added to the culture media after 1 to 8 days of culture (1 to 8 days post cell encapsulation). The drug response was measured after 5 to 10 days post-drug addition. As a preferred culture medium, a medium was preselected that is characterized by the presence of FBS (serum) or Wnt agonists such as R-spondin. According to this example, a culture medium was used that was adapted from the medium described in Sachs et al. (The EMBO Journal e 100300|2019). The preferred culture medium comprised AdDMEM/F12 medium supplemented with glutamine, Noggin, EGF, fibroblast growth factor 7 and 10 [FGF7 and FGF10], HGF, R-spondin-conditioned medium, Primocin, penicillin/streptomycin, N-acetyl-L-cysteine, Nicotinamide, A83-01, SB202190 (p38-inhibitor), Y-27632 (rock inhibitor), B27 supplement and HEPES. Target expression (c-Met and Phospho c-Met) was detected by Western-blot in corresponding growth conditions.

[2] = tested on: lung cancer cells overexpressing the EGFR receptor (PDX); assay: ex vivo drug testing of lung cancer cells overexpressing EGFR in 3D hydrogel; format: cell-based, human
[3] = tested on: non-small cell lung cancer (NSCLC) model LXFA-1647; assay: in vivo treatment of patient-derived xenograft (PDX) NSCLC model; set-up: species or system human; settings: PDX NSCLC model LXFA-1647
[4] = Matrigel as matrix (comparative example 1), FIG. 1c
[5] = conditions of example 1a: soft non self-degradable PEG hydrogel without any RGD motif (responder conditions), FIG. 1b
[6] = responder conditions of example 1a (hydrogel without any RGD motif), FIG. 1e

Row | SMILES | drug response (effect of treatment) [1, 4] | drug response (effect of treatment) [1, 5] | drug response (effect of treatment) [2] | drug response (effect of treatment) ([1]; hydrogel with 1 mM bioactive ligand comprising a RGD motif attached (non-responder conditions, example 1b)) | drug response (effect of treatment) [2, 6] | tumor growth in vivo [3]
1 | CC(=O)O[C@@]12CO[C@@H]1C[C@H](O)[C@@]1(C)C(=O)[C@H](O)C3=C(C)[C@@H](OC(=O)[C@H](O)[C@@H](NC(=O)OC(C)(C)C)c4ccccc4)C[C@@](O)([C@@H](OC(=O)c4ccccc4)[C@H]21)C3(C)C [Docetaxel] | an effect | clearly effective |  |  |  | 
2 | C#Cc1cccc(Nc2ncnc3cc(OCCOC)c(OCCOC)cc23)c1 [Erlotinib] |  |  | clear effect |  |  | 
3 | OCCn1cc(-c2cnc3nnn(Cc4ccc5ncccc5c4)c3n2)cn1 [PF-04217903] | did not respond; also recorded: No effect | clearly effective |  | resistant | no effect | induces tumor growth regression
4 | CC(=O)O[C@H]1C(=O)[C@@]2(C)[C@H]([C@H](OC(=O)c3ccccc3)[C@]3(O)C[C@H](OC(=O)[C@H](O)[C@@H](NC(=O)c4ccccc4)c4ccccc4)C(C)=C1C3(C)C)[C@]1(OC(C)=O)CO[C@@H]1C[C@@H]2O [Paclitaxel] |  |  |  |  | clear effect | 
